Experimental data from paper PMC11696430, “A Water-Soluble Small Molecule Boron Carrier Targeting Biotin Receptors for Neutron Capture Therapy” (ACS Omega, 2024).

Key:
[1] = MTT cytotoxicity assay; settings: mouse, B16 cells (mouse melanoma)
Protocol: (§1) Human lung carcinoma (A549), mouse melanoma (B16), mouse colon carcinoma (CT26), human breast adenocarcinoma (MDA-MB-231), and human glioblastoma (U87MG) cell lines were maintained in Roswell Park Memorial Institute (RPMI)-1640 medium (Fujifilm Wako Pure Chemicals Co., Ltd., Japan) supplemented with 10% heat-inactivated fetal bovine serum (Thermo Fisher Scientific, Inc.) and 1% penicillin/streptomycin (final concentrations: 100 units/mL penicillin G and 10 μg/mL streptomycin; Thermo Fisher Scientific, Inc.). The cells were cultured at 37 °C in a humidified incubator with 5% CO2. For experiments, A549, B16, CT26, MDA-MB-231, and U87MG cells were seeded into 96-well plates at a density of 1000 cells per well. […] Following treatment, 0.5 mg/mL 3-(4,5-dimethylthiazol-2-yl)-2,5-diphenyltetrazolium bromide (MTT; Tokyo Chemical Industry Co., Ltd., Japan) was added to each well, and the plates were incubated for 4 h at 37 °C. After incubation, the medium was carefully removed, and the resulting MTT formazan product was dissolved in 100 μL of dimethyl sulfoxide (DMSO). The absorbance of the solution was measured at 590 nm using a microplate reader. The half-maximal inhibitory concentration (IC50) for each compound was calculated from semilogarithmic dose–response curves.

[2] = system: CT26 cells; assay: Biotin competition cellular uptake assay; type: cell-based, mouse; settings: CT26, biotin 772 μM to 3.09 mM, 24 h
Protocol: Figure 3 (A) Time-course evaluation of cellular uptake for BBC-IP, BBC, and BPA in A549, B16, CT26, MDA-MB-231, and U87MG cells. Compounds were incubated for 2.5, 6, and 24 h in cells, and boron concentration was measured using inductively coupled plasma optical emission spectroscopy (ICP-OES) after ashing with conc. HNO3. Data are shown as the mean ± SEM from a single experiment conducted in triplicate. (B) Biotin concentration-dependent cell uptake study of BBC-IP, BBC and BPA in CT26 cells. Boron concentration was determined after incubation with compounds at various concentrations of biotin for 24 h. (C) Intracellular distribution of BBC-IP in CT26 cells. Cells were incubated with BBC-IP (ca. 25 μg [B]/mL) for 3 h, followed by […] using an anti-closo-dodecaborate antibody and lysosomal staining with Lysotracker. Red: lysosomes stained with LysoTracker Red DND-99; Green: BBC-IP localization; Blue: nuclei stained with DAPI. Scale bars: 25 μm. (D) Intracellular distribution of BPA in CT26 cell lines. Cells were incubated with BPA (ca. 25 μg [B]/mL) for 3 h, followed by fluorescent modification with a boron sensor,[24] nucleus staining with NucleoSeeing and lysosomal staining with a lysotracker. […] The cells were incubated for another 24 h, harvested using a cell scraper, and counted. […]

[3] = MTT cytotoxicity assay; settings: mouse, CT26 cells (mouse colon carcinoma)
Protocol: as §1

[4] = MTT cytotoxicity assay; settings: human, A549 cells (human lung carcinoma)
Protocol: as §1

[5] = MTT cytotoxicity assay; settings: human, MDA-MB-231 cells (human breast adenocarcinoma)
Protocol: as §1

[6] = system: CT26 tumor-bearing mice; assay: BNCT efficacy in CT26 tumor-bearing mice; type: in vivo, mouse; settings: i.v. 15 mg [10B]/kg, neutron irradiation 3 h later
Protocol: Figure 4 (A–D) Biodistribution of boron in the CT26-bearing mice at 3, 6, and 12 h post- intravenous injection of (A) BBC-IP, (B) BBC, (C) BBC-IP-HSA and (D) BPA at the dose of 15 mg [B]/kg. The data are shown as mean ± SEM (n = 3–4). (E, F) BNCT of the CT26 tumor-bearing mice intravenously injected with 15 mg [^10B]/kg of BBC-IP-HSA and BPA. (E) The tumor volume curves after thermal neutron irradiation (also see Figure S5, Supporting Information). (F) Mice body weight corresponding to the treatments in panel (E). Results are shown as the mean ± SEM (n = 5 for the groups with BBC-IP-HSA, BPA and no treatment, n = 4 for the groups with neutron only). The two-sided Student’s t-test was applied to determine statistical significance, defined as *p < 0.05, **p < 0.0001.
CT26 tumor-bearing mice were prepared by subcutaneously injecting a suspension of CT26 cells (8.0 × 10^5 cells/mouse) into the right thigh. […] The BNCT effects were assessed based on tumor volume changes. Tumor volume was calculated using the formula 0.5 × (A × B^2), where A and B represent the longest and shortest tumor diameters in millimeters, respectively. […]
(B) Body weight of the same mice treated in panel A. (C) The tumor volume curves of the individual mice after irradiation with thermal neutron. […] Significance was determined as: *p < 0.05, **p < 0.0001 using the two-sided […]

[7] = MTT cytotoxicity assay; settings: human, U87MG cells (human glioblastoma)
Protocol: as §1

[8] = stated in Introduction without reference; cited from earlier work
[9] = system: B16 (mouse melanoma) cells
Protocol: as §1

[10] = system: CT26 (mouse colon carcinoma) cells
Protocol: as §1

[11] = system: A549 (human lung carcinoma) cells
Protocol: as §1

[12] = system: U87MG (human glioblastoma) cells
Protocol: as §1

[13] = system: MDA-MB-231 (human breast adenocarcinoma) cells
Protocol: as §1

[14] = target: human serum albumin (HSA) (Homo sapiens, UniProt P02768); set-up: method as in PMID 38770220; settings: ELISA, Figure S1; stated as previously reported value; read-out: dissociation constant (Kd) to HSA; cited from earlier work
Chain of human serum albumin (HSA) (P02768 25-609): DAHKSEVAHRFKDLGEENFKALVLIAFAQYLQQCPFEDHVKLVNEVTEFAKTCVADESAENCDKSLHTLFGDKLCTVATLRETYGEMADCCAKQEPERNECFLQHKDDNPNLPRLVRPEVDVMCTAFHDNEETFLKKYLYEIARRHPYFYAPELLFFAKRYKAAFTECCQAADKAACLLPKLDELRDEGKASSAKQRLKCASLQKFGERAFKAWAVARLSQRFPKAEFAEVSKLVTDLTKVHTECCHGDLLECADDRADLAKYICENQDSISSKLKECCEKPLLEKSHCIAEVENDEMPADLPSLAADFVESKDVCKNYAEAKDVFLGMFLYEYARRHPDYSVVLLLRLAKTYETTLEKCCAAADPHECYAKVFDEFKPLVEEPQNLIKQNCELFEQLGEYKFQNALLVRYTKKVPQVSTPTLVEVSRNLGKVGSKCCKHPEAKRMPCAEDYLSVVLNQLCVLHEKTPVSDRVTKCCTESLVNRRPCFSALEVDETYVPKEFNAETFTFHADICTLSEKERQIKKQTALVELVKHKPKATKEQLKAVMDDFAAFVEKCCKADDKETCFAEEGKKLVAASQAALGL

## N[C@@H](Cc1ccc(B(O)O)cc1)C(=O)O [BPA, 4-borono-L-phenylalanine, reference compound]
[1]
  IC50 at 72 h: 0.91 ± 0.13 mM
[2]
  decrease of accumulation under biotin competitive conditions (up to): largely unaffected
[3]
  IC50 at 72 h: > 1 mM
[4]
  IC50 at 72 h: > 1 mM
[5]
  IC50 at 72 h: > 1 mM
[6]; 20-day monitoring
  antitumor efficacy / tumor growth compared between agents: significantly higher antitumor efficacy than BBC-IP-HSA
[6]; 20 days after irradiation
  tumor suppression versus neutron-only group: significantly greater tumor suppression compared to the neutron-only group
[7]
  IC50 at 72 h: > 1 mM

## O=C(O)CCCC[C@@H]1SC[C@@H]2NC(=O)N[C@@H]21 [biotin]
[8]
  water solubility: approximately 0.9 mM

## biotin-closo-dodecaborate conjugate [BBC]
[9]
  IC50: > 1 mM
[2]
  decrease of accumulation under biotin competitive conditions (up to): ~20%
[10]
  IC50: > 1 mM
[11]
  IC50: > 1 mM
[12]
  IC50: > 1 mM
[13]
  IC50: > 1 mM

## pteroyl-closo-dodecaborate conjugated with a 4-(p-iodophenyl)butyric acid moiety [PBC-IP]
[14]
  Kd: 0.0117 ± 0.0008 mM
